Laboratory results published in US20230201153A1, “COMPOSITIONS AND METHODS FOR TREATMENT OF OBESITY” (EPITRACKER, INC., priority 2020, published 2023).
Entries after “also recorded” stand apart in the source; their conditions may differ.

What was measured:
PPARδ = target: T1, PPARδ (Homo sapiens, UniProt Q03181); assay: PathHunter NHRscan CHO cell-based functional protein interaction assay, PPARδ agonist; details: CHO cells, 10 concentrations up to 100 μM; for EC50: read-out: effective concentration needed to reach half-maximum PPARδ activity
T1 construct: host or cells: Chinese hamster ovary (CHO)
T1 sequence (Q03181 1-441): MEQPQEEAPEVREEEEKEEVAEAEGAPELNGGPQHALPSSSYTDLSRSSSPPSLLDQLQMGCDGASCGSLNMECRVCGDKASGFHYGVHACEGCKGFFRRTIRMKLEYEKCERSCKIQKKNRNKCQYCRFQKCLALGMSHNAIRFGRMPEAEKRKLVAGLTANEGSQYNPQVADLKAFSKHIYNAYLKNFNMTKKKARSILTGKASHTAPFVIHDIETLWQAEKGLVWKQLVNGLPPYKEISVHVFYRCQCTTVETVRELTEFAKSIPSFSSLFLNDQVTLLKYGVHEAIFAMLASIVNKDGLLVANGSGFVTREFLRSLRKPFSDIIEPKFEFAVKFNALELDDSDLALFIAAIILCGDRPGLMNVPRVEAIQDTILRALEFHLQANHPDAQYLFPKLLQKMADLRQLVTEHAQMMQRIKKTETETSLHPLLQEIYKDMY
Procedure: (§1) Chinese hamster ovary (CHO, cell line 93-0457C2) cell-based functional protein interaction assays for PPARα, δ, and γ that are part of the Eurofins/DiscoverX PathHunter NHRscan panel (Fremont, Calif.) were used to evaluate C15:0 and C17:0 PPARα, δ and γ agonist activities at 10 concentrations (up to 100 μM). Effective concentrations (EC:50) and maximum activities were determined in relation to positive controls (GW7647 for PPARα, L-165.041 for PPARδ, and troglitazone for PPARγ). Detailed methods used for these assays and assay readouts are available from Eurofins/DiscoverX.

[1] = target: T2, cannabinoid receptor 2 (CB2) (Homo sapiens, UniProt P34972); assay: SAFETYscan E/IC50 ELECT functional assay, CB2 agonist activity; type: cell-based; details: at 20 μM; relative to positive control CP 55940 assigned 100%
T2 construct: purchased DiscoverX/Eurofins, Fremont, Calif
T2 sequence (P34972 whole entry): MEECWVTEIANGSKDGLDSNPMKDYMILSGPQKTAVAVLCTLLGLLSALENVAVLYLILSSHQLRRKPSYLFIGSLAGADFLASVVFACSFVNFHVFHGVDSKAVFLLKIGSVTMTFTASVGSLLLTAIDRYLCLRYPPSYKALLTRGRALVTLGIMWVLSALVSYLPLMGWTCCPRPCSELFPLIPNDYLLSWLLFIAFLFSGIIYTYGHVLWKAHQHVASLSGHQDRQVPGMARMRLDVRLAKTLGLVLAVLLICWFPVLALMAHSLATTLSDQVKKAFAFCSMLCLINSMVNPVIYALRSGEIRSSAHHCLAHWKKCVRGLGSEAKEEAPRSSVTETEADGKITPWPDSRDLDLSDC
Text: (§2) In order to evaluate potential pharmacologic targets of pentadecanoic acid, this study examined agonist and antagonist activities of synthetic pentadecanoic acid (Sigma-Aldrich Product W433400) across 78 assays using SAFETYscan E/IC50 ELECT (DiscoverX/Eurofins, Fremont, Calif.). Briefly, a variety of standardized and optimized functional assays were used, including G protein coupled receptors (ADORA2A, ADRA1A, ADRA2A, ADRB1, ADRB2, CB1, CB2, CCK1, D1, D2S, ETA, H1, H2, M1 M2, M3, OPRD1, OPRK1, OPRM1, 5HTR1A, 5HTR1B, 5HTR2A, 5HTR2B, AVPR1A), kinases (LCK, INSR, VEGFR2, ROCK1), transporters (DAT, NET, SERT), ion channels (GABAA, 5-HT3, CA1.2, HERG, KVLQT1/MINK, NA1.5, NMDAR1/2B, NACHR), nuclear receptors (AR, GR), and non-kinase enzymes (COX1, COX2, ACHE, MAOA, PDE3A, PDE4D2). Ten-point concentration curves for both agonist (EC50) and antagonist (IC50) activity were established for each target. Maximum activity (%) was also determined based on comparisons with internal positive controls, which were assigned 100% activity.

[2] = Body weight of mice fed a high-fat diet with daily oral supplementation; type: in vivo, male C57BL/6J mice; details: for Body weight / Body weight change (%): high fat diet, n = 10; for percent body weight gain / weight-lowering effect compared to non-supplemented controls: high fat diet mice, C15:0 5 mg/kg, C17:0 5 and 35 mg/kg daily oral
Text: This study assessed the effects of daily oral C15:0 and C17:0 supplementation on the body weight of mice fed a high-fat diet compared to non-supplemented controls.
Forty 6-week old male C57BL/6J mice (Jackson Laboratories, Bar Harbor, Me.) were fed a high fat diet (HFD, 60% kilocalories fat, D12492 Research Diets Inc., New Brunswick, N.J.) for eight weeks. Animals were randomly assigned to one of the following four study groups (10 per group) on Day −1 based on body weight: Group 1 (HFD non-supplemented controls), Group 2 (daily oral 5 mg/kg heptadecanoic acid, C17:0), Group 3 (daily oral 35 mg/kg heptadecanoic acid, C17:0), and Group 4 (daily oral 5 mg/kg pentadecanoic acid, C15:0). Group sizes for this pilot study were based on numerous published studies initially evaluating the effects of other natural small molecules on similar metabolic indices in the same model. Animals were provided the vehicle (1×PBS) or test articles daily via gastric gavage for 12 weeks. Animals were fed the HFD throughout the study. The study was conducted by Charles River Laboratories (Shrewsbury, Mass.), where animals were housed singly in solid bottom polycarbonate cages with Beta-chip contact bedding and enviro-dri nesting material, with temperature and humidity ranges of 18° to 26° C. and 30 to 70%, respectively. A 12 hr light cycle was used, and water and food were provided ad libitum. Body weights and body weight changes were recorded weekly throughout the study. Due to low sample sizes and inability to assume normal distributions, Wilcoxon tests were used to compare body weight values between supplemented and non-supplemented controls; a two-sided P value ≤0.05 was defined as significant.

PPARγ = target: T3, PPARγ (Homo sapiens, UniProt P37231); assay: PathHunter NHRscan CHO cell-based functional protein interaction assay, PPARγ agonist; details: CHO cells, 10 concentrations up to 100 μM; positive control troglitazone; read-out: concentration with PPARγ agonist activity
T3 construct: host or cells: Chinese hamster ovary (CHO)
T3 sequence (P37231 1-505): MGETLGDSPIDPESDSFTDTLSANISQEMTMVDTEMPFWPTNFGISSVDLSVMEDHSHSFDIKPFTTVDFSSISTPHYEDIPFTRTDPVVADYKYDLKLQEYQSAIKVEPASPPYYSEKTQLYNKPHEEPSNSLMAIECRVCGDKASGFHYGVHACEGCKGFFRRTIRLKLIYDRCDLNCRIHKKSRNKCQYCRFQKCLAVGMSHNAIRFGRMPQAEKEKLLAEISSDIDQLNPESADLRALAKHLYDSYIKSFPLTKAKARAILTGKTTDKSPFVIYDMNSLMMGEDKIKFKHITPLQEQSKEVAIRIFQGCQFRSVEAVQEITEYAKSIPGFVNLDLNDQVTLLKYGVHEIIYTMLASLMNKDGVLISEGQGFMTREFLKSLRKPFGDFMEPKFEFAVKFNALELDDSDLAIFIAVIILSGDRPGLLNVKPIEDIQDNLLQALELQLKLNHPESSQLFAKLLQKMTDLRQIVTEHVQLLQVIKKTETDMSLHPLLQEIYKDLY
Procedure: as §1

PPARα = target: T4, PPARα (Homo sapiens, UniProt Q07869); assay: PathHunter NHRscan CHO cell-based functional protein interaction assay, PPARα agonist; details: CHO cells, 10 concentrations up to 100 μM; for EC50: read-out: effective concentration needed to reach half-maximum PPARα activity
T4 construct: host or cells: Chinese hamster ovary (CHO)
T4 sequence (Q07869 1-468): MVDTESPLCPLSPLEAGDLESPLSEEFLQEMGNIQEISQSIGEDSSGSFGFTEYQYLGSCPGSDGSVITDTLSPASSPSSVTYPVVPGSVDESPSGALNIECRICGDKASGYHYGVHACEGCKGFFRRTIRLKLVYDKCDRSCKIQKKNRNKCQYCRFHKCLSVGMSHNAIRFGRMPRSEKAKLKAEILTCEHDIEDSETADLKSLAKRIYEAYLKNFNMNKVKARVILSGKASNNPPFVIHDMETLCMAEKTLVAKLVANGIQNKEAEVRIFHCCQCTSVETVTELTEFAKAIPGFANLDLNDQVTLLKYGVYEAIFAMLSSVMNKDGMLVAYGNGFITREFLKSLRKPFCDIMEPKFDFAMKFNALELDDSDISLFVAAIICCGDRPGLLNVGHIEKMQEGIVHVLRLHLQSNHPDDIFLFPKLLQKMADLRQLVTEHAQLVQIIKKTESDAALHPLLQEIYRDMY
Procedure: as §1

[3] = target: T5, cannabinoid receptor 1 (CB1) (Homo sapiens, UniProt P21554); assay: SAFETYscan E/IC50 ELECT functional assay, CB1 agonist activity; type: cell-based; details: at 20 μM; relative to positive control CP 55940 assigned 100%
T5 construct: purchased DiscoverX/Eurofins, Fremont, Calif
T5 sequence (P21554 whole entry): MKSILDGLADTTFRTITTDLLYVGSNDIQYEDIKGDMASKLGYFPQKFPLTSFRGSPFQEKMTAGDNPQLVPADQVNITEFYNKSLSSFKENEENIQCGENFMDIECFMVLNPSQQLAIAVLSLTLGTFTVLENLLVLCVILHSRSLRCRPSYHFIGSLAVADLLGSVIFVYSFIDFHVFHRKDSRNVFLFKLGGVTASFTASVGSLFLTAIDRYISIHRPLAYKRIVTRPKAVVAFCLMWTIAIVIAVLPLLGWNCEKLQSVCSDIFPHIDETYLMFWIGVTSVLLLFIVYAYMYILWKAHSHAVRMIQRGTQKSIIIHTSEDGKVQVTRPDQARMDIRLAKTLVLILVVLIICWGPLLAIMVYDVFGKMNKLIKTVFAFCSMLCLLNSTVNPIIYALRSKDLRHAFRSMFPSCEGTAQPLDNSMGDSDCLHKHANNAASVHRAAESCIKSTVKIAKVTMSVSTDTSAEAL
Text: as §2

[4] = Voluntary customer surveys after daily oral C15:0 supplement (fatty15); type: in vivo, human
Procedure: An odd-chain saturated fatty acid dietary supplement, containing an encapsulated pure (>98%) free fatty acid C15:0 powder and called fatty15™, was launched as a consumer health product. Recommended dosing was a single, […] capsule taken orally once a day. Based on our studies with obese mice, we hypothesized that daily oral C15:0 supplementation would decrease snacking and/or improve body weight among customers.
6-Week Survey. Six weeks following receipt of the C15:0 supplement, customers were provided a voluntary electronic questionnaire to evaluate potential near-term benefits, including the question, ‘Overall how much would you agree with the following statement: Since starting fatty15, I feel less hungry between meals, snack less, and/or eat less during meals.’ Survey responders were asked to select a number between 1 and 10, in which 1=Strongly disagree and 10=Strongly agree. A response of 7 or greater was considered an agreement with the statement. Survey responders were also asked if fatty15™ had become a part of their daily health routine.
4-Month Survey. Approximately 4 months following receipt of the C15:0 supplement, customers were provided a second voluntary electronic questionnaire to evaluate potential longer-tem benefits, including the question, ‘Which of the following (if any) have you experienced since starting fatty15, even if this experience has been subtle?’ Two of the possible responses were ‘Healthier eating, including less snacking’ and ‘Healthier body weight’.

[5] = 5 mg/kg daily oral gavage for 12 weeks
[6] = 5 mg/kg daily oral gavage for 12 weeks, *p < 0.05 compared to controls
[7] = after 4 months of daily oral 100 mg, 44 responders
[8] = 35 mg/kg daily oral gavage for 12 weeks

| SMILES | maximum PPARδ agonist activity compared to positive control L-165,041 (PPARδ) [%] | EC50 (PPARδ) [µM] | CB2 agonist activity [1] [%] | Body weight [2, 5] [g] | Body weight change (%) [2, 6] | percent body weight gain / weight-lowering effect compared to non-supplemented controls [2] | EC50 (PPARγ) [µM] | maximum PPARα agonist activity compared to positive control GW7647 (PPARα) [%] | EC50 (PPARα) [µM] | CB1 agonist activity [3] [%] | customers reporting healthier body weight [4, 7] [%] | customers reporting healthier eating, including less snacking [4, 7] [%] | customers reporting feeling less hungry between meals, snacking less, and/or eating less during meals ([4]; after 6 weeks of daily oral 100 mg, 114 responders) [%] | satiety reported by patients taking the dietary supplement ([4]; dietary supplement) | Body weight [2, 8] [g] | Body weight change (%) [2, 8] [%] |
| --- | --- | --- | --- | --- | --- | --- | --- | --- | --- | --- | --- | --- | --- | --- | --- | --- |
| CCCCCCCCCCCCCCC(=O)O [C15:0, pentadecanoic acid] | 52.8 | 2.7 | 18.2 | 41 ± 5 | 120 ± 6* % | weight-lowering effect was observed; also recorded: lower percent body weight gain | ≥ 100 | 65.8 | 11.5 | 24.5 | 21 | 33 | 46 | increased satiety | – | – |
| CCCCCCCCCCCCCCCCC(=O)O [C17:0, heptadecanoic acid] | 39.8 | 17.4 | – | 43 ± 6 | 127 ± 9% | weight-lowering effect was not observed; also recorded: did not significantly decrease percent body weight | ≥ 100 | – | > 100 | – | – | – | – | – | 41 ± 7 | 122 ± 12 |
